Test results taken from the NIST ThermoML archive (doi:10.1021/je060271a).

Conditions: 323.15 K, Liquid, Vibrating tube method

CCCC(=O)OCC(COC(=O)CCC)(COC(=O)CCC)COC(=O)CCC [pentaerythritol tetrabutyrate]
Conditions | mass density [kg/m3]
15786 kPa | 1036
15818 kPa | 1036
15856 kPa | 1036.1
15888 kPa | 1036
15920 kPa | 1036
15952 kPa | 1036.1
15991 kPa | 1036.1
16024 kPa | 1036.1
16057 kPa | 1036.1
16097 kPa | 1036.2
16131 kPa | 1036.3
16164 kPa | 1036.2
16204 kPa | 1036.3
16238 kPa | 1036.4
16305 kPa | 1036.3
16381 kPa | 1036.4
16759 kPa | 1036.6
16795 kPa | 1036.7
16831 kPa | 1036.7
16875 kPa | 1036.7
18410 kPa | 1037.7
18440 kPa | 1037.7
18726 kPa | 1037.9
18756 kPa | 1038
19188 kPa | 1038.2
19252 kPa | 1038.3
19278 kPa | 1038.4
19311 kPa | 1038.3
19396 kPa | 1038.4
19436 kPa | 1038.4
19469 kPa | 1038.4
19501 kPa | 1038.4
19541 kPa | 1038.4
19574 kPa | 1038.4
19608 kPa | 1038.4
19648 kPa | 1038.6
19682 kPa | 1038.6
19970 kPa | 1038.7
20047 kPa | 1038.7
20089 kPa | 1038.7
20124 kPa | 1038.7
20159 kPa | 1038.9
20202 kPa | 1038.8
20238 kPa | 1039
20546 kPa | 1039.1
20584 kPa | 1039
21551 kPa | 1039.8
21639 kPa | 1039.7
21673 kPa | 1039.9
21714 kPa | 1039.9
21749 kPa | 1039.8
21784 kPa | 1039.8
21826 kPa | 1039.9
21862 kPa | 1040
21898 kPa | 1040
21934 kPa | 1040
21976 kPa | 1040
22011 kPa | 1040
22048 kPa | 1040
22091 kPa | 1040.1
22126 kPa | 1040
22162 kPa | 1040.2
22206 kPa | 1040.1
22243 kPa | 1040.2
22279 kPa | 1040.1
22323 kPa | 1040.3
22360 kPa | 1040.1
22398 kPa | 1040.2
22443 kPa | 1040.4
22480 kPa | 1040.3
22518 kPa | 1040.3
22563 kPa | 1040.3
22602 kPa | 1040.4
23845 kPa | 1041.3
23898 kPa | 1041.2
23944 kPa | 1041.2
23987 kPa | 1041.3
24030 kPa | 1041.3
24100 kPa | 1041.4
24135 kPa | 1041.4
24290 kPa | 1041.4
24326 kPa | 1041.4
24362 kPa | 1041.4
24397 kPa | 1041.5
24789 kPa | 1041.8
24827 kPa | 1041.8
24872 kPa | 1041.9
24910 kPa | 1041.8
25317 kPa | 1042.1
25357 kPa | 1042.1
25403 kPa | 1042.2
25442 kPa | 1042.2
25481 kPa | 1042.2
25528 kPa | 1042.2
25569 kPa | 1042.3
25608 kPa | 1042.2
25656 kPa | 1042.3
25696 kPa | 1042.3
25736 kPa | 1042.3
25784 kPa | 1042.5
26584 kPa | 1042.8
27050 kPa | 1043.1
27094 kPa | 1043.1
27148 kPa | 1043.2
27193 kPa | 1043.3
27239 kPa | 1043.4
27294 kPa | 1043.3
27340 kPa | 1043.4
27386 kPa | 1043.3
27432 kPa | 1043.4
27488 kPa | 1043.4
27535 kPa | 1043.5
27876 kPa | 1043.7
27985 kPa | 1043.8
28093 kPa | 1043.7
28151 kPa | 1044
28200 kPa | 1043.9
28250 kPa | 1043.9
28409 kPa | 1044
28460 kPa | 1044.1
28519 kPa | 1044
28562 kPa | 1044.2
28628 kPa | 1044.1
28679 kPa | 1044.2
28730 kPa | 1044.2
29066 kPa | 1044.5
29135 kPa | 1044.4
29177 kPa | 1044.5
29260 kPa | 1044.5
29301 kPa | 1044.6
29338 kPa | 1044.7
29373 kPa | 1044.7
29415 kPa | 1044.7
29449 kPa | 1044.6
29492 kPa | 1044.7
29529 kPa | 1044.8
29563 kPa | 1044.8
29598 kPa | 1044.6
29642 kPa | 1044.9
29678 kPa | 1044.8
29720 kPa | 1044.9
29756 kPa | 1044.8
29793 kPa | 1044.8
29839 kPa | 1044.9
30028 kPa | 1045.1
30074 kPa | 1045.1
